Patent publication US7537910B2, “Lactamase amplification substrate” (Discoverx Corp., priority 2005, dated 2009)

What was measured:
[1] = tested on: EA (enzyme acceptor fragment of β-galactosidase); assay: Enzyme Fragment Complementation (EFC) assay; type: biochemical; details: 50 nM ED, EA plus chemiluminescence substrate, 60 min room temperature; compared to linear ED (cysteines capped with maleimide)
Procedure: For determination of EFC activity, 10 μL of 50 nM cyclic ED-Lactamase substrate (cED47mer) or 10 μl linear ED (Cysteines capped with maleimide, DiscoveRx, Fremont, Calif.) 50 nM was added to 20 μl EDDB Enzyme donor dilution buffer (MES 10 mM, NaCl 200 mM, EGTA 10 mM, BSA 2 mg/ml, NaN3 14.6 mM) (DiscoveRx, Fremont, Calif.) in a 384-well white plate.

[2] = target: TEM-1 lactamase (Escherichia coli, UniProt P62593); details: cED47mer 50 nM, CHOK1 cell lysates, 3-hour incubation with varying TEM1 lactamase (picomole), read 1 hr after EA and substrate
Procedure: The assay comprises two basic steps: • 1) hydrolysis of the lactam in the cyclic ED lactamase substrate (cED 47mer) by the lactamase to yield a linear ED; and • 2) detection of the linear ED by EA and β-galactosidase chemiluminescent substrate. The lactamase reaction step comprises 101 of cell lysate (<4000 CHOK1 cells, DiscoveRx, Fremont, Calif.) or cell lysis buffer (part # 30-175, DiscoveRx, Fremont, Calif.), 10 μl cED47mer substrate at 50 nM and 10 μl of lactamase (TEM-1, Invitrogen Part # PV3575) at varying concentrations. The reaction mixture is then incubated at ambient temperature for various time intervals. The detection step comprises addition of 10 μL1 EA (1-2 μM, DiscoveRx, Fremont, Calif.) and 10 μl chemiluminescent substrate reagent (Applied Biosystems, Foster City, Calif.).
The chemiluminescence was read 1 hr after addition of EA and chemiluminescent substrate on a Packard Lumincount Reader (Packard Instruments, Meridien, Conn.) with the PMT set at 1100V and read time 1 second per well.

Q: How did the “EFC activity (FIG. 4)” value [1] turn out when “cED47mer: 47-mer β-galactosidase enzyme donor peptide (SEQ ID NO:1) cyclized through its two cysteines with bis-maleimide cephem compound 3 (CSLAVVLQQRRDWENPGVTQLNRLAAHPPFASWRNSEEARTDCPSQQL; cyclized via cysteines with bis-maleimide cephem compound 3; …ON)” was run?
A: The value was “reduction of EFC activity”.

Q: And the “chemiluminescence signal after cleavage with lactamase (FIG. 5)” value [2]?
A: The value was “increased with concentration of E. coli TEM1 lactamase (picomole) in a dose dependent fashion”.
